Laboratory results from US12569470B2, “Vasodilator and use thereof” (Bioradical Research Institute Corp., priority 2019, dated 2026).

What was measured:
[1] = Water solubility noted at synthesis; assay type: physicochemical; settings: noted for the isolated crystal
Procedure: 3.58 g of 3-methyl-1-phenyl-5-pyrazolone (hereinafter also referred to as “edaravone”), 2.59 g of malonaldehyde dianilide hydrochloride, and 20 ml of ethanol were added to a reactor and dissolved. To the obtained solution, 2.04 g of triethylamine and 0.4 ml of water were added and stirred for 1 hour at room temperature (about 25° C.; hereinafter, the same applies). After the stirring, the resultant was further reacted for 1 hour at 50° C. After discharging the obtained reaction solution to 100 ml of 1N hydrochloric acid, the mixture was sufficiently stirred and the precipitate was filtered. The resulting cake was washed with water. The cake was added to 200 ml of an aqueous sodium hydroxide solution having a 1% by weight concentration and completely dissolved by heating with stirring. Next, the dissolved solution was stirred for 3 hours after cooling to room temperature. Then, the liquid containing the obtained precipitate was filtered, and then the cake was washed with water. […] Note that the melting point of ED2AP was 249° C., which was water-soluble.
3 ml of dimethylformamide was added to a reactor and the exterior of the reactor was cooled with ice water. 1.75 g of phosphorus oxychloride was slowly dropped into the reactor (Reaction Solution A). In another reactor, 1.78 g of edaravone was dissolved in 5 ml of dimethylformamide (Reaction Solution B). […]

[2] = test system: superoxide produced by the neutrophils; experiment: Superoxide production amount of PMA-stimulated neutrophils, CLA chemiluminescence; assay type: cell-based, human; settings: 0-200 or 0-5,000 μmol/1, PMA 100 ng/ml, 30 minutes, control being 100, FIG. 2
Procedure: For examining the reactive oxygen-eliminating effect of the vasodilator of the present invention, the superoxide produced by the neutrophils when the neutrophils isolated from the peripheral blood of healthy individuals were stimulated with PMA (phorbor-12-myristate-13-acetate) was used. The superoxide production amount was measured by chemiluminescence using CLA (2-methyl-6-phenyl-3, 7-dihydroimidazo[1,2-α]pyrazine-3-one).
First, ED2AP, BisEp-C3, edaravone, BisEp-C1, or BisEp-C1 (H2) was added to a neutrophil of 4×10^5 cells per sample so as to achieve a predetermined concentration (0, 12.5, 25, 50, 100, or 200 μmol/1, or 0, 125, 250, 500, 1,250, 2,500 or 5,000 μmol/1) with […] of CLA, and then the cell suspension was seeded in flat-bottomed 96-well plates. The volume of the suspension was 200 μl/well, and phenol red-free Ca+, Mg+ HBSS was used as the solution. […] After the stimulation, a plate reader (Envision 2104 Multilabel Reader produced by Perkin Elmer Co., Ltd.) was used to measure the chemiluminescence value over time for 30 minutes with the PMA stimulation time being a reference. […] In addition, as a control, the superoxide production amount was measured in the same manner except that each compound was not added. The relative value of the superoxide production amount when each compound was added was calculated with the superoxide production amount of the control being 100.

[3] = test system: rat neuroid cells B50; experiment: Cytoprotection against singlet oxygen (Rose Bengal + G-LED), Alamar Blue fluorescence; assay type: cell-based; settings: 0, 12.5, 25, 50, or 100 μmol/1, RB 200 nmol/1 + G-LED 5 minutes, negative control being 100, FIG. 3
Procedure: Edaravone, ED2AP and BisEp-C3 were examined for whether they had the function of alleviating neuronopathy. Specifically, singlet oxygen was generated by combining Rose Bengal (RB), which is a sensitizer, with green light (G-LED), and the function of alleviating the cytotoxicity of the generated singlet oxygen was examined with the cellular activity being an indicator.
First, rat neuroid cells B50 were cultured in 12-well dishes at 2×10^5 cells/well (medium: RPMI-1640 medium containing 5% FCS) overnight. After the culturing, the medium of each well was replaced with HBSS (1,000 μl/well; phenol red-free Ca+, Mg+) containing 200 nmol/1 RB and edaravone, ED2AP, or BisEp-C3 having a predetermined concentration (0, 12.5, 25, 50, or 100 μmol/1). The dish was then irradiated with G-LED for 5 minutes to generate singlet oxygen. Thereafter, the medium of each well was replaced with 1,000 μl of HBSS, and Alamar Blue was added. The dish was then allowed to react for about 2 hours in an incubator at 37° C. and 5%CO2. After the reaction, fluorescence intensity (excitation wavelength: λ- 560 nm, fluorescence wavelength: λ-595 nm) was measured with a plate reader (infinite200, Tecan Trading AG). In this experimental system, the higher the cellular activity, the more Alamar Blue is taken up and the higher the fluorescence intensity. As a control, fluorescence intensity was measured in the same manner except that sodium azide (Azide, NaN3) was added instead of the compounds so as to achieve a concentration of 4 mmol/1. As a negative control (NC), fluorescence intensity was measured in the same manner except that RB was not added. The relative value of the fluorescence intensity in the sample to which each compound was added was calculated with the fluorescence intensity of the negative control being 100.

SMILES | solubility in water [1] | relative value of the superoxide production amount [2] | relative value of the fluorescence intensity [3]
CCN1N=C(C)/C(=C\C=C\c2c(C)nn(CC)c2O)C1=O [BisEp-C3, 2,4-dihydro-4-[3-(1-ethyl-5-hydroxy-3-methyl-1H-pyrazol-4-yl)-2-propen-1-ylidene]-2-ethyl-5-methyl-3H-pyrazol-3-one] | water-soluble | remarkably suppressed superoxide production amount | recovered in a concentration-dependent manner
CC1=NN(c2ccccc2)C(=O)/C1=C/C=C/c1c(C)nn(-c2ccccc2)c1O [ED2AP, 2,4-dihydro-4-[3-(5-hydroxy-3-methyl-1-phenyl-1H-pyrazol-4-yl)-2-propen-1-ylidene]-5-methyl-2-phenyl-3H-pyrazol-3-one] | water-soluble | remarkably suppressed superoxide production amount | recovered in a concentration-dependent manner
